This is an account of results in patent US20200115357A1, “LIVER X RECEPTORS (LXR) MODULATORS” (Phenex-FXR GmbH, priority 2017, published 2020).

Test [1] addresses T1, GST-LXRβ ligand-binding domain (Homo sapiens, UniProt P55055, DUP175-175).
T1 construct: amino acids 156-461; NP009052; made in house; host or cells: E. coli
T1 sequence (P55055 with tags, fused parts or gaps DUP175-175): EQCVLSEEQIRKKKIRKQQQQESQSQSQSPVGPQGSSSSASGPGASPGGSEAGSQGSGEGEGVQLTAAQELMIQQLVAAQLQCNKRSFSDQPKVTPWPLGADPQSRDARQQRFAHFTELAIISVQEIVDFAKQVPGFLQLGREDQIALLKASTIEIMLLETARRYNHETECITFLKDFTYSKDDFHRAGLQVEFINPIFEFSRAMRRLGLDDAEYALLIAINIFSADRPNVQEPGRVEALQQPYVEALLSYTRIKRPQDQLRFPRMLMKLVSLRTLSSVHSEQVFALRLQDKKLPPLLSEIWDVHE
The experiment in a line: TR-FRETβ activity assay (LXRβ-LBD / NCoA3 coactivator peptide, prestimulated with 24(S)-25-epoxycholesterol). In kind it is biochemical. Further details: key to behavior in FRET assay: ag=agonist; ia=inverse agonist. Particulars: for pEC50: 1 μM 24(S)-25-epoxycholesterol as prestimulating agonist, read-out: FRETβ activity range (EC50); for behavior in FRET assay: agonist or inverse agonist. A digest of the protocol: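 E. coli-expressed GST-LXRβ LBD (aa 156-461) at 76 nM with biotinylated NCoA3 coactivator peptide (400 nM), in 240 mM KCl, BSA and Triton-X-100. Anti-GST-Tb cryptate/streptavidin-XL665 TR-FRET after 1 h equilibration at 4 °C, excitation 340 nm, emission 615 and 665 nm. Run in triplicate.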

Test [2] deals with T2, LXRα ligand-binding domain (LBD) (Homo sapiens, UniProt Q13133).
T2 construct: expressed in transfected cells; host or cells: HEK293
T2 sequence (Q13133 155-447): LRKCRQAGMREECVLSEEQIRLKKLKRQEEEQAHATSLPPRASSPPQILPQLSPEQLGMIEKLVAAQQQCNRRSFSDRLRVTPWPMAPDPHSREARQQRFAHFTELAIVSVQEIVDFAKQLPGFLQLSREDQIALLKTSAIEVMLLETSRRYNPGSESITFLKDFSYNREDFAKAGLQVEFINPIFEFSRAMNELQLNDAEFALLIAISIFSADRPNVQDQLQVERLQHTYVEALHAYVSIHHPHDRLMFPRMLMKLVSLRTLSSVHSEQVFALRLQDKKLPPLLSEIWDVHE
Put plainly: LXR Gal4 reporter transient transfection assay (M2H), Gal4α LBD. In kind it is cell-based. As to conditions: HEK293 cells; for pEC50: read-out: M2H Gal4α LBD activity range (EC50). The method, then:
(§1) The tested compounds were usually dissolved, tested and stored as 20 mM stock solutions in DMSO. Since sulfonyl acetic acid derivatives tend to decarboxylate under these conditions, these stock solutions were prepared, tested and stored as 20 mM DMSO stock solutions containing 100 mM trifluoroacetic acid (5 equivalents). Sulfonyl acetic acid derivatives are shelf stable as solid at rt for long time as reported by Griesbrecht et al. (Synlett 2010:374) or Faucher et al. (J. Med. Chem. 2004; 47:18).
(§2) LXR Gal4 Reporter Transient Transfection Assays
(§3) LXRα and LXRβ activity status was determined via detection of interaction with coactivator and corepressor proteins in mammalian two-hybrid experiments (M2H). For this, via transient transfection the full length (FL) proteins of LXRα (amino acids 1-447; NP005684; SEQ ID NO:7) or LXRβ-(amino acids 1-461; NP009052; SEQ ID NO:8) or the ligand-binding domains (LBD) of LXRα (amino acids 155-447 SEQ ID NO:3) or LXRβ (amino acids 156-461; SEQ ID NO:4) were expressed from pCMV-AD (Stratagene) as fusions to the transcriptional activation domain of NFkB. As cofactors, domains of either the steroid receptor coactivator 1 (SRC1; amino acids 552-887; SEQ ID NO:5) or of the corepressor NCoR (amino acids 1903-2312 SEQ ID NO:6) were expressed as fusions to the DNA binding domain of the yeast transcription factor GAL4 (from pCMV-BD; Stratagene). Interaction was monitored via activation of a coexpressed Firefly Luciferase Reporter gene under control of a promoter containing repetitive GAL4 response elements (vector pFRLuc; Stratagene). Transfection efficiency was controlled via cotransfection of constitutively active pRL-CMV Renilla reniformis luciferase reporter (Promega). HEK293 cells were grown in minimum essential medium (MEM) with 2 mM L-glutamine and Earle's balanced salt solution supplemented with 8.3% fetal bovine serum, 0.1 mM non-essential amino acids, 1 mM sodium pyruvate, at 37° C. in 5% CO2. 3.5×10^4 cells/well were plated in 96-well cell culture plates in growth medium supplemented with 8.3% fetal bovine serum for 16-20 h to ˜90% confluency. For transfection, medium was taken off and LXR and cofactor expressing plasmids as well as the reporter plasmids are added in 30 μL OPTIMEM/well including polyethylene-imine (PEI) as vehicle. Typical amounts of plasmids transfected/well: pCMV-AD-LXR (5 ng), pCMV-BD-cofactor (5 ng), pFR-Luc (100 ng), pRL-CMV (0.5 ng). Compound stocks were prepared in DMSO, prediluted in MEM to a total volume of 120 μL, and added 4 h after addition of the transfection mixture (final vehicle concentration not exceeding 0.2%). Cells were incubated for additional 16 h, lysed for 10 min in 1× Passive Lysis Buffer (Promega) and Firefly and Renilla luciferase activities were measured sequentially in the same cell extract using buffers containing D-luciferine and coelenterazine, respectively. Measurements of luminescence were done in a BMG-Iuminometer.

The target in test [3] is T3, LXRβ ligand-binding domain (LBD) (Homo sapiens, UniProt P55055, DUP175-175).
T3 construct: LXRβ (amino acids 156-461); expressed in transfected cells; host or cells: HEK293
T3 sequence (P55055 with tags, fused parts or gaps DUP175-175): T1 sequence (P55055 with tags, fused parts or gaps DUP175-175)
Put plainly: LXR Gal4 reporter transient transfection assay (M2H), Gal4β LBD. Format: cell-based. Particulars: HEK293 cells; for pEC50: read-out: M2H Gal4β LBD activity range (EC50). As to the method:
as §1, §2, §3

By pEC50 is commonly meant the EC50 on a negative log10 scale, so that one unit is a factor of ten.

pEC50: −log10 of the molar value.

As to `Cc1cc(C)c(S(=O)(=O)N(Cc2ccc(-c3cccc(C4(C(=O)O)CC4)c3)cc2)Cc2ccc(C(F)(F)F)o2)c(C)c1` [7/6], the pEC50 is 6.00 to 7.00 in test [1], 6.00 to 7.00 in test [2] and above 7.00 in test [3]. Further, the “behavior in FRET assay” value in test [1] was “ia”.
As to `Cc1cc(C)c(S(=O)(=O)N(Cc2ccc(-c3cc(F)cc(C4(C(=O)O)CC4)c3)cc2)Cc2ccc(C(F)(F)F)o2)c(C)c1` [7/7], the negative-log EC50 (pEC50) in test [1] is 6.00 to 7.00; in test [2], 6.00 to 7.00; in test [3], above 7.00. Further, the “behavior in FRET assay” value in test [1] is reported as “ia”.
For the compound `Cc1cc(C)c(S(=O)(=O)N(Cc2ccc(-c3cccc(C4(C(=O)O)CCOCC4)c3)cc2)Cc2ccc(C(F)(F)F)o2)c(C)c1` [7/8], the pEC50 in test [1] was below 5.00; in test [2], 6.00 to 7.00; in test [3], 6.00 to 7.00. For the same compound, the “behavior in FRET assay” value in test [1] was “ia”.
With `COc1ccc(-c2ccc(CN(Cc3ccc(C(F)(F)F)o3)S(=O)(=O)c3c(C)cc(C)cc3C)cc2)cc1C(C)(C)C(=O)O` [7/9], the results for the pEC50 in test [1], in test [2] and in test [3] were 5.00 to 6.00, 6.00 to 7.00 and above 7.00, respectively. Besides, the “behavior in FRET assay” value in test [1] is given as “ia”.
Turning to `COc1ccc(C(C)(C)C(=O)O)cc1-c1ccc(CN(Cc2ccc(C(F)(F)F)o2)S(=O)(=O)c2c(C)cc(C)cc2C)cc1` [7/10], the pEC50 in test [1] was 5.00 to 6.00; in test [2], 5.00 to 6.00; in test [3], 6.00 to 7.00. Also, the “behavior in FRET assay” value in test [1] is reported as “ia”.
Turning to `Cc1cc(C)c(S(=O)(=O)N(Cc2ccc(-c3cccc([S+]([O-])CC(=O)O)c3)cc2)Cc2ccc(C(F)(F)F)o2)c(C)c1` (stereo not shown) [11/17], the pEC50 in test [1], in test [2] and in test [3] was 5.00 to 6.00 each time. Moreover, the “behavior in FRET assay” value in test [1] was “ia”.
Regarding `Cc1cc(C)c(S(=O)(=O)N(Cc2ccc(-c3cncc(C(C)(C)C(=O)O)c3)cc2)Cc2ccc(C(F)(F)F)o2)c(C)c1` [11/18], the pEC50 in test [1] is 6.00 to 7.00; in test [2], 6.00 to 7.00; in test [3], above 7.00. The “behavior in FRET assay” value in test [1] is on record as “ia”.
Turning to `Cc1cc(C)c(S(=O)(=O)N(Cc2ccc(N3CCCC(C(C)(C)C(=O)O)C3)cc2)Cc2ccc(C(F)(F)F)o2)c(C)c1` (stereo not shown) [16/2], the pEC50 in test [1] is below 5.00; in test [2], 6.00 to 7.00; in test [3], 6.00 to 7.00. Besides, the “behavior in FRET assay” value in test [1] is on record as “ia”.
With `Cc1cc(C)c(S(=O)(=O)N(Cc2ccc(C3=CS(=O)(=O)C(CC(=O)O)=C3)cc2)Cc2ccc(C(F)(F)F)o2)c(C)c1` [25/3], the results for the pEC50 in test [1], in test [2] and in test [3] were 5.00 to 6.00, 6.00 to 7.00 and 6.00 to 7.00, respectively. Besides, the “behavior in FRET assay” value in test [1] is “ia”.
Regarding `Cc1cc(C)c(S(=O)(=O)N(Cc2ccc(-c3ccc(OCC(=O)O)cc3)cc2)Cc2ccc(C(F)(F)F)o2)c(C)c1` [C7/11], the pEC50 in test [1] was 5.00 to 6.00; in test [2], 6.00 to 7.00; in test [3], 6.00 to 7.00. Moreover, the “behavior in FRET assay” value in test [1] is “ia”.
Take `CCOC(=O)Cc1cccc(-c2ccc(CN(Cc3ccc(C(F)(F)F)o3)S(=O)(=O)c3c(C)cc(C)cc3C)cc2)c1` [Example 1]: the pEC50 is below 5.00 in test [1], 6.00 to 7.00 in test [2] and above 7.00 in test [3]. The “behavior in FRET assay” value in test [1] was “ia”.
Take `Cc1cc(C)c(S(=O)(=O)N(Cc2ccc(C(F)(F)F)o2)C(C)c2ccc(-c3cccc(CC(=O)O)c3)cc2)c(C)c1` (stereo not shown) [Example 2/1]: in test [1], the pEC50 was 5.00 to 6.00 and the “behavior in FRET assay” value is “ia”. Also, the “M2H Gal4α LBD activity range (EC50)” value in test [2] was “inactive”. The “M2H Gal4β LBD activity range (EC50)” value in test [3] is “inactive”.
For `Cc1cc(C)c(S(=O)(=O)N(Cc2ccc(-c3cccc(S(=O)(=O)O)c3)cc2)Cc2ccc(C(F)(F)F)o2)c(C)c1` [Example 3, 4′-(((2,4,6-Trimethyl-N-((5-(trifluoromethyl)furan-2-yl)methyl)phenyl)sulfon-amido)methyl)-[1,1′-biphenyl]-3-sulfonic acid], in test [1], the pEC50 was 5.00 to 6.00 and the “behavior in FRET assay” value is on record as “ia”. Besides, the “M2H Gal4α LBD activity range (EC50)” value in test [2] is “inactive”. The “M2H Gal4β LBD activity range (EC50)” value in test [3] is “inactive”.
